Test [1] deals with T1, Mu-type opioid receptor (Rattus norvegicus, UniProt P33535). In words: Displacement of [3H]diprenorphine from rat mu opioid receptor expressed in rat C6 cell membranes after 1 hr by liquid scintillation counting analysis.
For test [2], the target named is T2, Delta-type opioid receptor (Rattus norvegicus, UniProt P33533). Kind of test: Displacement of [3H]diprenorphine from rat delta opioid receptor expressed in rat C6 cell membranes after 1 hr by liquid scintillation counting analysis. A general note: Displacement assays read how much labelled ligand stays bound in the presence of the test substance.
T2 sequence (P33533 whole entry): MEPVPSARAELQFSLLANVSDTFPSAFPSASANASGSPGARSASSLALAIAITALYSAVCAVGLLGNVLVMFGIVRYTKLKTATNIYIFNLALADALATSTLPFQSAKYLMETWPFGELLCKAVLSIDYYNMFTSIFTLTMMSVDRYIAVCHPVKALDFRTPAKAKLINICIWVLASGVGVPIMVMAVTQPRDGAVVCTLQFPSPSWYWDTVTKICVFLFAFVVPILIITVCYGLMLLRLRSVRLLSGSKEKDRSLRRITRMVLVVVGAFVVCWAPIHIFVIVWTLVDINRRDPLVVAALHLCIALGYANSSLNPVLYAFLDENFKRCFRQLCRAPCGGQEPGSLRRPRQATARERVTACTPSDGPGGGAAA
Test [3] has as its target T3, Kappa-type opioid receptor (Homo sapiens, UniProt P41145). Kind of test: Displacement of [3H]diprenorphine from human kappa opioid receptor expressed in CHO cell membranes after 1 hr by liquid scintillation counting analysis.
Test [4] deals with T1, Mu-type opioid receptor. Kind of test: Agonist activity at rat mu opioid receptor expressed in rat C6 cells assessed as stimulation of [35S]-GTPgammaS binding after 1 hr by liquid scintillation counting analysis. The format is functional, cell-based.
For test [5], the target named is T2, Delta-type opioid receptor. In words: Agonist activity at rat delta opioid receptor expressed in rat C6 cells assessed as stimulation of [35S]-GTPgammaS binding after 1 hr by liquid scintillation counting analysis. Type of test: functional, cell-based.
The target in test [6] is T3, Kappa-type opioid receptor. In words: Agonist activity at human kappa opioid receptor expressed in CHO cells assessed as stimulation of [35S]-GTPgammaS binding after 1 hr by liquid scintillation counting analysis. Type of test: functional, cell-based.
Test [7] concerns the target Mu-type opioid receptor (Rattus norvegicus) (UniProt P33535). Kind of test: Agonist activity at rat mu opioid receptor expressed in rat C6 cells assessed as stimulation of [35S]-GTPgammaS binding at 10 uM after 1 hr by liquid scintillation counting analysis relative to DAMGO. The format is functional, cell-based. For orientation: GTPγS resists hydrolysis and so accumulates on activated G proteins.

For test [8], the target named is Mu-type opioid receptor (Homo sapiens, UniProt P35372). Kind of test: Binding affinity to mu opioid receptor (unknown origin).
Chain of Mu-type opioid receptor (Homo sapiens, UniProt P35372) (P35372 whole entry): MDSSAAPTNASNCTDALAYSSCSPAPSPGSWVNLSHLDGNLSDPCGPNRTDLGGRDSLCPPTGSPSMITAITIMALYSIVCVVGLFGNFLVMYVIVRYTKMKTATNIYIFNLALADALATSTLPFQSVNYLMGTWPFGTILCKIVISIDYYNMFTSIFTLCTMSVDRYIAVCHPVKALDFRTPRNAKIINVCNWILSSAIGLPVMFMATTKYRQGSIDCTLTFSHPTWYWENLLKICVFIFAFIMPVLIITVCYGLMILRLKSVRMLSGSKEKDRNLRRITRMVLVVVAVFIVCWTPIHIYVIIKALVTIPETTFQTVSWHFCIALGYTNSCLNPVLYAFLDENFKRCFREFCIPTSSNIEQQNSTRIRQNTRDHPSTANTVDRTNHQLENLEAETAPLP
For test [9], the target named is T3, Kappa-type opioid receptor. In words: Binding affinity to kappa opioid receptor (unknown origin).
For test [10], the target named is Delta-type opioid receptor (Homo sapiens, UniProt P41143). Kind of test: Binding affinity to delta opioid receptor (unknown origin).
Chain of Delta-type opioid receptor (Homo sapiens, UniProt P41143) (P41143 whole entry): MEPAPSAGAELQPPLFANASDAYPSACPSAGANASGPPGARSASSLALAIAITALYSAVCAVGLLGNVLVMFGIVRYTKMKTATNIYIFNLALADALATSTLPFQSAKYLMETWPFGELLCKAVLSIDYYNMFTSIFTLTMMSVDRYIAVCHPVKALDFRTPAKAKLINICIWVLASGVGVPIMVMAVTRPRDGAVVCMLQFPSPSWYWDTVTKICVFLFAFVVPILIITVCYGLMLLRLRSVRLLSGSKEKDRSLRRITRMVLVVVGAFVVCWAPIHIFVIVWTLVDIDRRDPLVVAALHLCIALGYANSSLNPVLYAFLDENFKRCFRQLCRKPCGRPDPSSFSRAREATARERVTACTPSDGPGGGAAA
Test [11] has as its target T3, Kappa-type opioid receptor. In words: Agonist activity at human kappa opioid receptor expressed in CHO cells assessed as stimulation of [35S]-GTPgammaS binding at 10 uM after 1 hr by liquid scintillation counting analysis relative to U69,593. The format is functional, cell-based.

From ChEMBL document CHEMBL3102699, “Synthesis and evaluation of 4-substituted piperidines and piperazines as balanced affinity μ opioid receptor (MOR) agonist/δ opioid receptor (DOR) antagonist ligands” (Bioorg Med Chem Lett, 2014) come the findings set out here.

T1 sequence (P33535 whole entry): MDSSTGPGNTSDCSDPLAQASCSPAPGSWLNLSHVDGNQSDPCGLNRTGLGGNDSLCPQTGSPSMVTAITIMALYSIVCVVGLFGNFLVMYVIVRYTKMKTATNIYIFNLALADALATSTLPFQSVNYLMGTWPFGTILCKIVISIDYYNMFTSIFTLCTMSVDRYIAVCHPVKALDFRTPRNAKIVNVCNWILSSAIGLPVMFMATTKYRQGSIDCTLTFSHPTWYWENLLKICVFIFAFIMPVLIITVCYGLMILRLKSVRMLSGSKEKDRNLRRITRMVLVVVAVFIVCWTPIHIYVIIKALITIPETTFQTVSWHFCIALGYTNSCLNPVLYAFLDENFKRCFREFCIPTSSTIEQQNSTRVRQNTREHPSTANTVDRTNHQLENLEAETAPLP
Chain of Mu-type opioid receptor (Rattus norvegicus) (P33535 whole entry): as above
T3 sequence (P41145 whole entry): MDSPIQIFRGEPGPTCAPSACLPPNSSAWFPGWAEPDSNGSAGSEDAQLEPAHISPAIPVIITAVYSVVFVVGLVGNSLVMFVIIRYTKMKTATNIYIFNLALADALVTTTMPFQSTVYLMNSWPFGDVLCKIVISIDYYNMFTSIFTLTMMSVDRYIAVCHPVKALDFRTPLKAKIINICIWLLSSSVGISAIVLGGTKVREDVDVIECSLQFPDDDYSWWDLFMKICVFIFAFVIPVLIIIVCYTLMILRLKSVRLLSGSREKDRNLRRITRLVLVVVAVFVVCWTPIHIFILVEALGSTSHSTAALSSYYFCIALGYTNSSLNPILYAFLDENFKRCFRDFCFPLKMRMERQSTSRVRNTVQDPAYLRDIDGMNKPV

Consider `Cc1cc(O)cc(C)c1C[C@H](N)C(=O)N1CCC(Cc2ccccc2)c2ccccc21` (stereo partly specified), for which the values for the Ki (on Mu-type opioid receptor [1]; in test [2]; in test [3]) were 0.029 µM, 0.014 µM and 0.31 µM, respectively. Besides, the EC50 entry (at Mu-type opioid receptor [4] (c6); in [5]; in test [6] (cho)) was “Not Active” throughout.
On to `Cc1cc(O)cc(C)c1C[C@H](N)C(=O)N1CCN(C/C=C\Cc2ccccc2)CC1`, for which the Ki at Mu-type opioid receptor [1] came out at 0.0003 µM; in test [2], 0.028 µM. The EC50 on Mu-type opioid receptor [4] (read-out: EC50) was 0.041 µM; in [5], “Not Active”; in test [6] (cho) it was “Not Active”. Also, the %max in test [7] amounted to 49%.
In the case of `Cc1cc(O)cc(C)c1C[C@H](N)C(=O)N1CCN(CCC(c2ccccc2)c2ccccc2)CC1`, the Ki on Mu-type opioid receptor [1] stood at 0.0011 µM; in [2] it was 0.021 µM; in test [3], 0.15 µM. In addition, the EC50 entry (on Mu-type opioid receptor [4] (c6); in [5]; in test [6] (cho)) was “Not Active” in each case.
As for `Cc1cc(O)cc(C)c1C[C@H](N)C(=O)N1CCC(CCCc2ccccc2)CC1`, the inhibition constant Ki at Mu-type opioid receptor [1] was 0.002 µM; in [2] it was 0.012 µM; in test [3], 0.11 µM. In addition, the results for the EC50 (on Mu-type opioid receptor [4] (read-out: EC50); in test [5]; in test [6] (cho)) were 0.119 µM, “Not Active” and “Not Active”, respectively. Also, in test [7], the %max stood at 26%.
For `Cc1cc(O)cc(C)c1C[C@H](N)C(=O)N1CCCc2ccccc21`, the values for the inhibitory constant (Ki) (on Mu-type opioid receptor [8]; in [9]; in test [10]) were 0.0258 µM, 0.0365 µM and 0.033 µM, respectively.
Take `Cc1cc(O)cc(C)c1C[C@H](N)C(=O)N1CCC(Cc2ccccc2)CC1`: the results for the Ki (on Mu-type opioid receptor [1]; in test [2]; in [3]) were 0.0014 µM, 0.0078 µM and 0.14 µM, respectively. For the same compound, the EC50 result (on Mu-type opioid receptor [4] (c6); in [5]; in test [6] (cho)) was “Not Active” throughout.
Regarding `Cc1cc(O)cc(C)c1C[C@H](N)C(=O)N1CCN(C/C=C/c2cccc3ccccc23)CC1`, the EC50 entry (on Mu-type opioid receptor [4] (c6); in [5]; in test [6] (cho)) was “Not Active” throughout.
Turning to `Cc1cc(O)cc(C)c1C[C@H](N)C(=O)N1CCN(CCCCc2ccccc2)CC1`, the results for the Ki (on Mu-type opioid receptor [1]; in test [2]; in test [3]) were 0.00045 µM, 0.0066 µM and 0.078 µM, respectively. Further, the values for the concentration for a half-maximal effect (EC50) (on Mu-type opioid receptor [4] (read-out: EC50); in test [5]; in test [6] (cho)) were 0.064 µM, “Not Active” and “Not Active”, respectively. Moreover, the %max in test [7] was 43%.
As to `Cc1cc(O)cc(C)c1C[C@H](N)C(=O)N1CCN(C/C=C/Cc2ccccc2)CC1`, the Ki on Mu-type opioid receptor [1] stood at 0.00029 µM; in test [2], 0.023 µM. Also, the EC50 at Mu-type opioid receptor [4] (read-out: EC50) was 0.02 µM; in test [5], “Not Active”. For the same compound, the %max in [7] came out at 36%.
For the compound `Cc1cc(O)cc(C)c1C[C@H](N)C(=O)N1CCN(CCCCCc2ccccc2)CC1`, the results for the Ki (on Mu-type opioid receptor [1]; in [2]; in test [3]) were 0.00042 µM, 0.0069 µM and 0.039 µM, respectively. Further, the EC50 on Mu-type opioid receptor [4] (read-out: EC50) was 0.053 µM; in test [5], “Not Active”; in [6] (read-out: EC50), 0.66 µM. Moreover, the %max in [7] is 42%; in test [11], 12%.
For `Cc1cc(O)cc(C)c1C[C@H](N)C(=O)N1CCN(CCCc2cccc3ccccc23)CC1`, the EC50 result in test [5] and in [6] (cho) was “Not Active” in each case.
Regarding `Cc1cc(O)cc(C)c1C[C@H](N)C(=O)N1CCN(CCCc2ccccc2)CC1`, the values for the Ki (on Mu-type opioid receptor [1]; in test [2]; in test [3]) were 0.0038 µM, 0.036 µM and 0.25 µM, respectively. The EC50 was 0.15 µM at Mu-type opioid receptor [4] (read-out: EC50), “Not Active” in test [5] and “Not Active” in [6] (cho). The %max in test [7] is 23%.

What is called Ki is the equilibrium dissociation constant of an inhibitor or competing ligand from its target. As a reminder, the EC50 is the concentration giving half of the maximal effect.
